This is an account of results in patent US9856298B2 (priority 2011, dated 2018).

The conditions of data set [1]: mammalian serum (25%); cited from earlier work.
Data set [2] has as its system Escherichia coli strain BL21AI. Kind of data set: Minimum inhibitory concentration in 1% TSB. Type of data set: cell-based. Conditions: E. coli BL21AI, 1% TSB, 20 hours at 37° C. Here is the method: (§1) To that end, the peptides were dissolved in water and diluted in a two-fold dilution series with 1% aqueous soybean medium (TSB) in sterile 96-well plates (Greiner Bio-One GmbH) from 128 μg/ml in twelve dilution steps to 62.5 ng/ml. Overnight cultures of Escherichia coli strain BL21AI were adjusted with 1% TSB to about […] colony forming units per ml. In each case 50 μl of peptide solution per well were then mixed with in each case 50 μl of the bacteria solution, in order to achieve a starting concentration of 4×10^5 bacteria per well. After incubation for 20 hours at 37° C., the absorption at 595 nm was determined (microplate reader, TECAN Trading AG).

Data set [3] can be described thus: Serum stability / release of peptide in 25% aqueous mouse serum (RP-HPLC, MALDI-MS). The conditions noted are these: 25% (v/v) aqueous mouse serum.
Method: (§2) 30 μl of a 1 mg/ml peptide solution were diluted with 120 μl of water and, after addition of 50 of serum, incubated at 37° C. for 0 hours, 0.5 hour, 1 hour, 2 hours or 4 hours. Alternatively, the peptide derivatives having a starting concentration of 3 mg/ml were diluted with serum to a final concentration of 15 μg/ml. According to the stability of the peptides, the samples were analysed at the times mentioned above or after 0 hours, 4 hours and 6 hours. The serum proteins were precipitated by addition of 50 μl of 15% TCA, and the supernatant was neutralised with 25 μl of 1 mol/l NaOH. The samples were made up to 250 μl with 5% B, 230 μl of the solution were transferred into a HPLC vial, and 220 μl were injected.
(§3) RP-HPLC analysis was carried out with a linear acetonitrile gradient (Biosolve BV, Valkenswaard, Netherlands) in the presence of 0.1% trifluoroacetic acid (TFA, UV grade, Fluka Chemie GmbH, Buchs, Switzerland) as ion-pair reagent. The fractions were co-crystallised with α-cyanohydroxycinnamic acid (Bruker Daltonik GmbH; Bremen, Germany) as matrix (4 mg/ml in 60% acetonitrile in 0.1% aqueous TFA) and analysed with a tandem mass spectrometer (MALDI-TOF/TOF-MS, 4700 Proteomics Analyzer; Applied Biosystems GmbH, Weiterstadt, Germany) in positive-ion reflector mode. The amount of intact peptides and their degradation products or metabolites could thus be identified and quantified at the individual times. 25% aqueous mouse serum, which was analysed in parallel for the same time intervals, was used as control.
The test system of data set [4] is Escherichia coli strain BL21AI. Kind of data set: Minimum inhibitory concentration in TSB in the presence of 25% mouse serum. It counts as cell-based. The conditions noted are these: E. coli BL21AI, TSB with 25% mouse serum, 20 hours at 37° C. The method, then: as §1
In addition, the antibacterial activity was also determined in the presence of 25% mouse serum. To that end, the MIC values were determined as described above, but 25 μl of mouse serum were also added to each well before the incubation (25% final concentration).

Data set [5] in a line: 25% aqueous mouse serum. The conditions noted are these: 37° C., up to 6 hours.
The conditions of data set [6]: mouse.
Method: as §2, §3

≈ marks a conversion by molar mass, not a printed value. Numbered stars: 1 amine (or outer) side, 2 acyl side, 3 side chain; on linkers, the order of the positions; unused ones are H or OH. Square brackets hold non-standard residues; d marks the D form. Primed or numbered codes have the meaning given here. Side chains are listed from the residue outwards. Ends that are not written are not given here. Peptide text beside a SMILES is read from it. * marks the point of attachment. Orn(α-tetramethylguanidino) = CN(C)C(=N[C@@H](CCCN)C(=O)*)N(C)C; δOrn(α-TMG) = CN(C)C(=N[C@@H](CCCN[*:1])C(=O)[*:2])N(C)C; Guan″ = guanidino group at the N-terminus, N=C(N)*; sPEG750 = PEG of 750 linked via acid group; Orn = NCCC[C@H](N)C(=O)O Some results are limits rather than exact numbers.

Regarding GKPRPYSPRPTSHPRPIRV [drosocin], the “Time to degradation in mammalian serum” value in data set [1] is “degraded within an hour”.

Usually half-life stands for how long it takes for the measured level to halve. A high value points to slow loss. Turning to `CC[C@H](C)[C@H](NC(=O)[C@H](Cc1ccc(O)cc1)NC(=O)[C@@H](NC(=O)[C@@H]1CCCN1C(=O)[C@H](CCCNC(=N)N)NC(=O)[C@H](CC(N)=O)NC(=O)[C@H](CC(N)=O)NC(=O)[C@H](CCCNC(=O)CNC(=O)[C@H](CO)NC(=O)[C@H](CCCNC(=N)N)NC(=O)[C@H](C)NC(=O)CN)N=C(N(C)C)N(C)C)C(C)C)C(=O)N1CCC[C@H]1C(=O)N[C@@H](CCCNC(=N)N)C(=O)N1CCC[C@H]1C(=O)N[C@@H](CCCNC(=N)N)C(=O)N1CCC[C@H]1C(=O)N1CCC[C@H]1C(=O)N[C@@H](Cc1c[nH]cn1)C(=O)N1CCC[C@H]1C(=O)N[C@@H](CCCNC(=N)N)C(=O)N[C@@H](CC(C)C)C(=O)O` [Api 137 (GARSG)] (H-GARSG[δOrn(α-TMG)]NNRPVYIPRPRPPHPRL-OH), the “MIC in TSB” value in data set [2] came out at 0.9 µM (≈ 2.45 µg/mL). Further, the half-life at 150 µg/ml in data set [3] came to 0.5 h.

On to `CC[C@H](C)[C@H](NC(=O)[C@H](Cc1ccc(O)cc1)NC(=O)[C@@H](NC(=O)[C@@H]1CCCN1C(=O)[C@H](CCCNC(=N)N)NC(=O)[C@H](CC(N)=O)NC(=O)[C@H](CC(N)=O)NC(=O)[C@H](CCCN)N=C(N(C)C)N(C)C)C(C)C)C(=O)N1CCC[C@H]1C(=O)N[C@@H](CCCNC(=N)N)C(=O)N1CCC[C@H]1C(=O)N[C@@H](CCCNC(=N)N)C(=O)N1CCC[C@H]1C(=O)N1CCC[C@H]1C(=O)N[C@@H](Cc1c[nH]cn1)C(=O)N1CCC[C@H]1C(=O)N[C@@H](CCCNC(=N)N)C(=O)N[C@@H](CC(C)C)C(=O)O` [Api 137, Guan-ONNRPVYIPRPRPPHPRL-OH, reference compound] ({Orn(α-tetramethylguanidino)}-NNRPVYIPRPRPPHPRL-OH), for which the “MIC in TSB” value in data set [2] worked out at 0.46 µM (≈ 1.05 µg/mL). Also, the “MIC in TSB/mouse serum” value in data set [4] is 0.23 µM. In data set [3], this molecule yielded a half-life at 150 µg/ml greater than 6 h.

In the case of `CC[C@H](C)[C@H](NC(=O)[C@H](Cc1ccc(O)cc1)NC(=O)[C@@H](NC(=O)[C@@H]1CCCN1C(=O)[C@H](CCCNC(=N)N)NC(=O)[C@H](CC(N)=O)NC(=O)[C@H](CC(N)=O)NC(=O)[C@H](CCCNC(=O)CNC(=O)[C@H](CO)NC(=O)[C@H](CCCNC(=N)N)NC(=O)CN)N=C(N(C)C)N(C)C)C(C)C)C(=O)N1CCC[C@H]1C(=O)N[C@@H](CCCNC(=N)N)C(=O)N1CCC[C@H]1C(=O)N[C@@H](CCCNC(=N)N)C(=O)N1CCC[C@H]1C(=O)N1CCC[C@H]1C(=O)N[C@@H](Cc1c[nH]cn1)C(=O)N1CCC[C@H]1C(=O)N[C@@H](CCCNC(=N)N)C(=O)N[C@@H](CC(C)C)C(=O)O` [Api 137 (GRSG)] (H-GRSG[δOrn(α-TMG)]NNRPVYIPRPRPPHPRL-OH), the “MIC in TSB” value in data set [2] worked out at 0.7 µM (≈ 1.85 µg/mL). Also, the half-life at 150 µg/ml in data set [3] worked out at 1 h.

Regarding “Guan-O(GARSG)NNRPVYIPRPRPPHPRL-OH (H-GARSG[δOrn(α-TMG)]NNRPVYIPRPRPPHPRL-OH; SMILES CC[C@H](C)[C@H](NC(=O)[C@H](Cc1ccc(O)cc1)NC(=O)[C@@H](NC(=O)[C@@H]1CCCN1C(=O)[C@H](CCCNC(=N)N)NC(=O)[C@H](CC(N)=O)NC(=O)[C@H](CC(N)=O)NC(=O)[C@H](CCCNC(=O)CNC(=O)[C@H](CO)NC(=O)[C@H](CCCNC(=N)N)NC(=O)[C@H](C)NC(=O)CN)N=C(N(C)C)N(C)C)C(C)C)C(=O)N1CCC[C@H]1C(=O)N[C@@H](CCCNC(=N)N)C(=O)N1CCC[C@H]1C(=O)N[C@@H](CCCNC(=N)N)C(=O)N1CCC[C@H]1C(=O)N1CCC[C@H]1C(=O)N[C@@H](Cc1c[nH]cn1)C(=O)N1CCC[C@H]1C(=O)N[C@@H](CCCNC(=N)N)C(=O)N[C@@H](CC(C)C)C(=O)O)”, the cleaved bond entry in data set [5] is on record as “R-S”.

As to “Guan-O(sPEG^750-GRSG)NNRPVYIPRPRPPHPRL-OH ({Guan″}-[Orn]([Gly-Ser-Arg-Gly-sPEG750])NNRPVYIPRPRPPHPRL-OH) [Api 137 (sPEG^750-GRSG)]”, the “Half-life (t1/2) in 25% serum” value in data set [6] was 2 h.

As for “Guan-O(sPEG^750-GARSG)NNRPVYIPRPRPPHPRL-OH ({Guan″}-[Orn]NNRPVYIPRPRPPHPRL-OH; not fully specified (residue 1)) [Api 137 (sPEG^750-GARSG)]”, the “MIC in TSB” value in data set [2] was 1.1 µM. Moreover, in data set [6], the “Half-life (t1/2) in 25% serum” value came out at 1 h.

For the molecule “Guan-O(sPEG^750-GARSG)NNRPVYIPRPRPPHPRL-OH”, in data set [5], the cleaved bond entry is “R-S”.
